Measurements published in paper PMC12439166, “Dietary flavonoids form supramolecular assemblies, alter biochemistry, and enhance cell resilience” (Frontiers in Nutrition, 2025).
“Also recorded” adds a separate entry of the source.

Columns and labels:
[1] = biological target: T1, MAP/microtubule affinity-regulating kinase 4 (MARK4) (Homo sapiens, UniProt Q96L34); assay: Enzyme activity assay (SAMDI-MS), MARK4; format: biochemical; details: 10 concentrations, 5 nM to 100 μM, compounds incubated with enzyme 30 min, result in words
T1 sequence (Q96L34 1-752): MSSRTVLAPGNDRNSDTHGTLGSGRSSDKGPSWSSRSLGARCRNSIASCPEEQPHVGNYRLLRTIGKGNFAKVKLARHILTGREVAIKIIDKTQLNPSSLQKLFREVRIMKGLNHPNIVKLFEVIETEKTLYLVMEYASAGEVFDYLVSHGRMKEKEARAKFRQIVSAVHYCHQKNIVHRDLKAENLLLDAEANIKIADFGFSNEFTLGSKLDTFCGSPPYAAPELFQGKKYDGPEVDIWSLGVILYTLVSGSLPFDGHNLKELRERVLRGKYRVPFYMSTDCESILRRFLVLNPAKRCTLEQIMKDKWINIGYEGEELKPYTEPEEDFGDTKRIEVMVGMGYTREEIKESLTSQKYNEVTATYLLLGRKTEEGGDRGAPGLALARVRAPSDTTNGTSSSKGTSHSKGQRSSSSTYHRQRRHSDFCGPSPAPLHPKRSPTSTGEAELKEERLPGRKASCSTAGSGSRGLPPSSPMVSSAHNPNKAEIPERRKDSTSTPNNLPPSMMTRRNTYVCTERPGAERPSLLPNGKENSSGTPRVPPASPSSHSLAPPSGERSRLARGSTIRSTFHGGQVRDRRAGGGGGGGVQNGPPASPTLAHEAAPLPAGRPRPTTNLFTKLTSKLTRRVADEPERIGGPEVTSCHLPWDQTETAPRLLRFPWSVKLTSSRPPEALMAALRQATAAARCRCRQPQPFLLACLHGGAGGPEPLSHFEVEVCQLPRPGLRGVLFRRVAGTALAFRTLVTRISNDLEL
Method: Enzyme screens were performed by SAMDI Tech (contract research organization); enzyme assays were performed in a 20 μL volume in 384-well low-volume polypropylene microtiter plates (Greiner Bio-One) at room temperature. The enzymes [Arginase 1 (ARG1), Lysine demethylase 4C (KDM4C), MAP/microtubule affinity-regulating kinase 4 (MARK4), Histone-Lysine N-methyltransferase (NSD2), Tyrosine-protein phosphatase non-receptor type 1 (PTP1B), and Sirtuin-3 (SIRT3)] were incubated with compounds for 30 min prior to initiation of the reaction by the addition of substrate and cofactors (if required). Reactions were quenched by the addition of 0.5% formic acid (final) with subsequent neutralization using 1% sodium bicarbonate (final). For SAMDI MS analysis, 2 μL of each reaction was transferred using a 384-channel automated liquid handler to SAMDI biochip arrays functionalized with a neutravidin-presenting self-assembled monolayer. The preparation of SAMDI biochip arrays has been previously described ([41], [42], [49]). The SAMDI arrays were incubated for 1 h in a humidified chamber to allow specific immobilization of the biotinylated substrates and products; they were then purified by washing with ultrafiltered water (50 μL/spot) and dried with compressed air. A matrix comprising α-Cyano-4-hydroxycinnamic acid in 80% acetonitrile: 20% aqueous ammonium citrate (10 mg/mL final) was applied in an automated format by dispensing 50 nL to each spot in the array. SAMDI MS was performed using reflector positive mode on an AB Sciex TOF-TOF 5800 System (AB Sciex, Framingham, MA) with 400 shots/spot analyzed in a random raster sampling. For data analysis, the area under the curves (AUCs) for the product peak and substrate peak were calculated using the TOF/TOF Series Explorer (AB Sciex), and the amount of product formed was calculated using the equation AUC product / (AUC product + AUC Substrate). Negative controls were pre-quenched with 0.5% formic acid (final). Lysozyme assay was performed using the manufacturer’s instructions (Biovision Lysozyme inhibitor screening kit K237). Flavonoids were acquired from Sigma-Aldrich and Seleckchem.
IC50 values of enzyme inhibition. Inhibition of the enzymes was measured at 10 concentration values in the range of 5 nM to 100 μM for each compound and enzyme, with two technical replicates; the percent inhibition values were determined by SAMDI software. Sigmoidal curves were fitted to the percent inhibition vs log10 (concentration) series, and IC50 values were determined at the crossing point of 50 % inhibition. […] First, for each IC50 value per compound and enzyme, a Z-score was calculated based on the log10 (IC50) value and that of the compounds that produced a successful readout for enzyme i , according to Equation 1: […]

human dermal fibroblasts = assay: Protection of fibroblasts against ultraviolet radiation, cell viability by CellTiter-Glo; format: cell-based; details: 1 h pretreatment, 254 nm UV 20 mJ/cm^2, viability 24 h post-irradiation; result in words
Method: Human fibroblasts were obtained from Cell Applications Inc (Cat. # 106-05a) and were maintained in Dulbecco’s Modified Eagle medium (DMEM, Corning, Cat. #10-013-CV) with 10% fetal bovine serum (Gibco, Cat. #10082147) and 1% penicillin/streptomycin (Gibco, Cat. # 15070-063) in a humidified incubator with 5% CO2 at 37 °C. For ultraviolet radiation, fibroblasts were seeded in a 96-well plate at a density of 25,000 cells/well and maintained at 37 °C for 24 h. Cells were washed once with Hanks’ balanced salt solution (HBSS, Gibco, Cat. #14025-092), then treated for 1 h with different concentrations of compounds prepared in HBSS. Vitamin C (Sigma, Cat. # A5960) served as a positive control. Treated cells were exposed to ultraviolet light (UVP cross-linker, CL1000, 254 nm UV, 8 watts) at a total dose of 20 mJ/cm^2. Following irradiation, the HBSS was replaced with culture medium containing the same concentration of compounds as before irradiation, and cells were again maintained at 37 °C. Cell viability was measured at 24 h post-irradiation using CellTiter-Glo according to the manufacturer’s instructions (Promega, Cat.# G7571). Results were expressed as relative cell viability (%) with respect to control cells (cells without ultraviolet irradiation or compound treatment).

Row | Structure (SMILES) | inhibition of enzyme activity, MARK4 ([1]; listed as Quercetin) | inhibition of enzyme activity, MARK4 ([1]; listed as Quercitin) | protection against the loss of cell viability caused by UV radiation (human dermal fibroblasts) | inhibition of enzyme activity, MARK4 [1]
1 | O=c1c(O)c(-c2ccc(O)c(O)c2)oc2cc(O)cc(O)c12 [quercetin] | inhibited | concentration-dependent inhibition | concentration-dependent protection | 
2 | C[C@@H]1O[C@@H](Oc2c(-c3ccc(O)c(O)c3)oc3cc(O)cc(O)c3c2=O)[C@H](O)[C@H](O)[C@H]1O [quercitrin] |  |  | concentration-dependent protection | did not affect; also recorded: did not inhibit
3 | O=c1c(O[C@@H]2O[C@H](CO)[C@@H](O)[C@H](O)[C@H]2O)c(-c2ccc(O)c(O)c2)oc2cc(O)cc(O)c12 [isoquercitrin] |  |  | concentration-dependent protection | inhibited
